Data from US10300070B2, “Metabolically-activated drug conjugates to overcome resistance in cancer therapy” (The Brigham and Women's Hospital, Inc., priority 2014, dated 2019).

How the values were obtained:
[1] = system: ROS (hydrogen peroxide); details: 10-20 uM of paclitaxel; cited from earlier work
[2] = system: explant tumor tissue from taxane-refractory breast cancer patients; test: Human refractory breast cancer explant model, glucose uptake; type: cell-based; details: chemotherapy in the presence of hexokinase inhibition, 72 h
Method: Anonymous human breast cancer tissues (N=7) from patients refractory to taxane-containing regimens and varying stages of disease were obtained from Mitra Biotech collected under IRB approval from HCG Bangalore Institute of Oncology with due consent. Fresh tumor tissues were collected from breast cancer patients immediately after surgical resection at HCG cancer hospital, Bangalore, India. The tumor samples were transported to the laboratory at 4° C., in appropriate transport buffer within 60 minutes post-resection, for ex-vivo studies and molecular and pathological evaluation. Tissues were cut into thin sections and cultured in 96 well plate using optimized conditions[BISWANATH REF]. Tumors were treated with a taxane, or doxorubicin at Cmax for 72 h. DMSO was used as a vehicle control. After treatment, tumor cell viability was measured. Immunohistochemistry (IHC) was performed as described in methods. Glucose uptake was evaluated 72 h post culture.
Glucose uptake assay was carried 72 hours post culture. Two micro liter of culture supernatant was added to 200 μl of Glucose reagent (Liquixx Glucose Reagent, Erbaa). All readings along with glucose standard (100 mg/dL) were run in triplicate. The plate was incubated at room temperature for 5 minutes on a plate shaker at medium speed and the absorbance was measured at 505 nm using multimode plate reader (Perkin Elmer).

[3] = system: MDA-MB-231 parent or DTC; test: Cell viability (MTS) and trypan blue exclusion of parent or DTC treated with doxorubicin; type: cell-based; details: co-incubated with dox, 48 h
Method: (§1) MDA-MB-231 (ATCC), MDA-MB-468 and 4T-1 mammary carcinoma cells (ATCC) were cultured in DMEM containing 10% Fetal Bovine Serum (FBS) at 37 C and 5% CO2. DU145 and DU145-TxR were provided by A. Mizokami^63 and cultured in DMEM containing 10% FBS, resistant line included 100 nM paclitaxel in the culture media. During treatments with chemotherapeutics, cells were grown to semi-confluence and treated with indicated concentrations of chemotherapy in serum-containing medium for indicated time points. When small molecule inhibitors were included in treatments, they were added simultaneously with chemotherapy. For siRNA gene knockdown, cells were transfected with silencer-select siRNA plasmids (Ambion, Invitrogen, Grand Island, N.Y.) pan-CD44(1) (s2682) panCD44(2) (s2681), siHIF1A (s6539) using lipofectamine 2000 (Invitrogen, Carlsbad Calif.) following manufacturer protocol and cultured for 72 hours prior to treatment. Scrambled siRNA was used as a control. For chemotherapy treatment experiments: Cancer cells were plated at a density of 0.5-1×10^5 cells/ml and allowed to adhere for 24-48 hr. When cells reached ˜70% confluency they were treated with cytotoxics at indicated concentrations for 24-48 hours and utilized for subsequent assays. For experiments in which a shorter incubation was used (i.e. 15 min-4 hours) fresh media was added 24 hours prior to addition of chemotherapy suspended to stock concentration in PBS. For generation of DTC: Cells were treated for 48 hours with chemotherapy. Following washes with PBS, adherent cells were trypsinized and re-plated at a density of 1.5-2×10^5 cells/ml and cultured in serum-containing medium. After 24 hours incubation, floating cells were removed and remaining cells were washed with 1× PBS and considered as chemotherapy-tolerant cells. A population of drug naïve parent cells were always cultured alongside DTC and fresh media was added at every interval that experimental population (DTC) received fresh media.
Following drug incubation, cells were washed and suspended in phenol red-free RPMI or DMEM and subsequently treated with MTS reagent using manufacturer protocol (Promega, Madison, Wis.). Trypan blue exclusion was used to validate experiments and evaluate % of dead cells performed by bright field microscopy.

[4] = system: mice; test: Systemic toxicity in treated 4T-1 tumor-bearing mice (hair and weight loss, spleen, heart caspase-3); type: in vivo
Method: (§2) An in-vivo study was designed creating drug-schedules following successive doses of docetaxel at MTD or vehicle control in distinct groups. […] Finally, in effort to dissect the dosing-response of MADC vs. free drugs, a dose-titration of doxorubicin+PI103 or MADC in sequence with docetaxel was performed. […] Finally, a preliminary bio distribution study of the free doxorubicin or conjugate was performed on heterotopically-implanted 4T-1 syngeneic mammary carcninoma model. Mice were treated with 20 mg/kg equivalent of MADC or Doxorubicin or a vehicle control group (N=3 per group). […] Organ lysate was then centrifuged at 15,000 g and supernatant was filtered through a 0.2 mm filter syringe before aliquoted into quadruplicate wells of a 96-well plate. […] Autofluorescence determined from vehicle-treated control groups was subtracted from experimental groups and final fluorescence was determined as % arbitrary fluorescence units (AFU)/mg tissue as % increase from vehicle treated control values.

[5] = system: 4T-1 mouse mammary carcinoma; type: in vivo, mice
Method: Tumor volumes were assessed by the following formula: (Width×Width×length)/2 and values were utilized to calculate tumor specific growth rate (SGR) by the algorhythm (ln [V2/V1]/[t2−t1)] where V=volume and t=time in days^64.
An in-vivo study was designed creating drug-schedules following successive doses of docetaxel at MTD or vehicle control in distinct groups. […] Finally, in effort to dissect the dosing-response of MADC vs. free drugs, a dose-titration of doxorubicin+PI103 or MADC in sequence with docetaxel was performed.

[6] = 20 mg/kg equivalent, 24 h, heterotopic 4T-1 model
Method: as §2

[7] = system: MDA-MB-231 parent or DTC; test: Glucose uptake (2-NBDG) determined by FACS; type: cell-based; details: MDA-MB-231 DTC incubated with catalase for 6 hours
Method: as §1
In vitro detection of glucose uptake was performed using 2-(N-7-Nitrobenz-2-oxa-1,3-diazol-4-yl)Amino)-2-Deoxyglucose (2-NBDG) (Invitrogen, Carlsbad Calif.), dissolved in DMSO to 50 mM. Cells were pre-treated with kinase inhibitors or vehicle for 3 hours in glucose- and phenol red-free media before addition of 50 μM 2-NBDG and subsequently read by FACS ex/em 488/535 nm. ROS was determined by pre-loading cells with CM-DCFDA (1 μM), washed 2 times with PBS and subsequently treated with H2O2 or vehicle; when kinase inhibitors were included in treatment, cells were first incubated with inhibitor for 3 hours prior to CM-DCFDA loading. Fluorescence was then determined by FACS ex/em 488/535 nm. For the following assays, cells were trypsinized and counted by Nexcelom cell counter (Lawrence, Mass.) prior to being subjected to analysis in order to achieve a quantitative value per cell: Reduced glutathione was determined using a colorimetric glutathione recycling system by DTNB following manufacturer protocol (Biovision, Milpitas Calif.). ATP analysis was performed using the ATP colorimetric analysis kit (Biovision) according to manufacturer protocol. Reductive stress was detected using the Enzo nitroreductase hypoxia kit (Enzo Life Sciences, Ann Arbor Mich.) following manufacturer protocol and visualized by fluorescent microscopy; a set of non-docetaxel-treated control cells loaded with fluorescent probe were compared against docetaxel-treated cells to derive a % redox stress increase which was calculated as fluorescence intensity of nitroreductase probe per cell and expressed as increase from vehicle. Protein synthesis was measured by two means 1. L-azidohomoalanine amino acid analog of methionine containing an azide moiety was added to cultured cells (parent or DTC) for 3 hours which is incorporated into proteins during active protein synthesis. […]

[8] = system: DTC; test: Total intracellular reduced glutathione (GSH) in drug tolerant cells; type: cell-based; details: acute (3 hours) exposure; ML-265 10 μM, catalase 2000 U/ml
Method: In vitro detection of glucose uptake was performed using 2-(N-7-Nitrobenz-2-oxa-1,3-diazol-4-yl)Amino)-2-Deoxyglucose (2-NBDG) (Invitrogen, Carlsbad Calif.), dissolved in DMSO to 50 mM. Cells were pre-treated with kinase inhibitors or vehicle for 3 hours in glucose- and phenol red-free media before addition of 50 μM 2-NBDG and subsequently read by FACS ex/em 488/535 nm. ROS was determined by pre-loading cells with CM-DCFDA (1 μM), washed 2 times with PBS and subsequently treated with H2O2 or vehicle; when kinase inhibitors were included in treatment, cells were first incubated with inhibitor for 3 hours prior to CM-DCFDA loading. Fluorescence was then determined by FACS ex/em 488/535 nm. For the following assays, cells were trypsinized and counted by Nexcelom cell counter (Lawrence, Mass.) prior to being subjected to analysis in order to achieve a quantitative value per cell: Reduced glutathione was determined using a colorimetric glutathione recycling system by DTNB following manufacturer protocol (Biovision, Milpitas Calif.). […] Protein synthesis was measured by two means 1. […] Fluorescence was detected by FACS as described below. […] GFP protein translation was determined by fluorescent microscopy. […] Individual cells were evaluated for fluorescent intensity of caspase-3 activity (red signal intensity) and green fluorescent protein intensity. […]

CC(=O)O[C@H]1C(=O)[C@@]2(C)[C@H]([C@H](OC(=O)c3ccccc3)[C@]3(O)C[C@H](OC(=O)[C@H](O)[C@@H](NC(=O)c4ccccc4)c4ccccc4)C(C)=C1C3(C)C)[C@]1(OC(C)=O)CO[C@@H]1C[C@@H]2O [paclitaxel]
increase from basal ROS levels [1]: 3-5 ×

O=C(O)c1nn(Cc2ccc(Cl)cc2Cl)c2ccccc12 [Lonidamine]
glucose uptake of explant tumor tissue [2]: diminished capacity for glucose uptake
response to dox in combination with inhibitor, DTC ([3]; DTC, PI103 5 μM, lonidamine 10 μM, KB-458 and KB-697 10 μM): exquisitely responsive, overtly driven to cell death by dox in combination
response to dox in combination with inhibitor, parent cells ([3]; drug naïve parent cells): little synergism or a reversion of synergy

COc1cccc2c1C(=O)c1c(O)c3c(c(O)c1C2=O)C[C@@](O)(C(=O)COC(=O)NCCSSCCNC(=O)Oc1cccc(-c2nc(N4CCOCC4)c4oc5ncccc5c4n2)c1)CC3OC1C[C@@H](C)[C@@H](O)[C@@H](N)C1 (stereo partly drawn) [MADC]
systemic toxicity (toxic burden) ([4]; MADC vs. free drug combination groups): significant reduction of toxic burden
hair and weight loss and myelosuppression indicated by splenic miniaturization ([4]; MADC-treated cohorts vs free drug combination): significantly attenuated
splenic miniaturization in dose-titration ([4]; lower concentration (3 mg/kg), in sequence with docetaxel): negligible
cardiotoxicity (activated caspase-3, immunoblots of whole heart lysate) ([4]; mouse, in vivo): lower indication of cardiotoxicity
tumor growth suppression, in sequence with docetaxel ([5]; given after successive doses of docetaxel at MTD): elicited suppression of tumor growth, largely comparable to the combination of free drugs in similar sequence
tumor growth suppression, in sequence with vehicle ([5]; given after vehicle control): operated poorly to suppress tumor growth
dose-titration, tumor growth, lower concentration ([5]; in sequence with docetaxel, 3 mg/kg): greater effect than free drug combination
dose-titration, tumor growth, 5 mg/kg and 10 mg/kg ([5]; in sequence with docetaxel, 5 mg/kg and 10 mg/kg): saturating concentrations
biodistribution (organ accumulation by fluorescence) [6]: greater concentration of the conjugate in the lung compared to the free drug administration

B1: catalase: an endogenous modulator of redox stress (protein, UniProt P04040 2-527, looked up)
Catalase: ADSRDPASDQMQHWKEQRAAQKADVLTTGAGNPVGDKLNVITVGPRGPLLVQDVVFTDEMAHFDRERIPERVVHAKGAGAFGYFEVTHDITKYSKAKVFEHIGKKTPIAVRFSTVAGESGSADTVRDPRGFAVKFYTEDGNWDLVGNNTPIFFIRDPILFPSFIHSQKRNPQTHLKDPDMVWDFWSLRPESLHQVSFLFSDRGIPDGHRHMNGYGSHTFKLVNANGEAVYCKFHYKTDQGIKNLSVEDAARLSQEDPDYGIRDLFNAIATGKYPSWTFYIQVMTFNQAETFPFNPFDLTKVWPHKDYPLIPVGKLVLNRNPVNYFAEVEQIAFDPSNMPPGIEASPDKMLQGRLFAYPDTHRHRLGPNYLHIPVNCPYRARVANYQRDGPMCMQDNQGGAPNYYPNSFGAPEQQPSALEHSIQYSGEVRRFNTANDDNVTQVRAFYVNVLNEEQRKRLCENIAGHLKDAQIFIQKKAVKNFTEVHPDYGSHIQALLDKYNAEKPKNAIHTFVQSGSHLAAREKANL
glucose consumption (2NBDG uptake) in DTC [7]: reduced potential for glucose consumption
total levels of reduced glutathione (GSH) in DTC [8]: diminished total levels of reduced glutathione in DTC
